Assays:
APTK-s.c. tumors [1] = assay: subcutaneous APTK tumors in Rag1-/- mice, UA diet; conditions: absence of mature T and B cells; UA-containing vs control food
T cells = assay: qPCR and RNA sequencing of stimulated T cells; type: cell-based, mice
Procedure: To explore the downstream events linking mitophagy to TSCM formation, the inventors performed RNA sequencing to globally assess differential gene expression in T cells exposed for 48 hours to either DMSO or UA in vitro. […] Indeed, when the inventors applied ICG001 to pharmacologically block TCF-1, UA-induced TSCM formation in vitro was abrogated (FIG. 5D-E).
In vitro activated T cells following the indicated treatments were collected followed by RNA isolation using the RNeasy kit (Qiagen). RNA quality and concentration were determined by Nanodrop spectrophotometer. Complementary DNA was generated using SuperScript II reverse transcriptase (ThermoFisher). A total reaction volume of 13 μl RNA was incubated with oligoDT and DNTP Mix (1 μl each) for 5 min at 65° C. The samples were allowed to cool down for 5 min on ice, and to each 4 μl of 5× First strand buffer, 1 μl DTT, 1 μl RNAseOUT™ and 1 μl Superscript II reverse transcriptase were added. Samples were incubated for 1 h at 42° C. Synthesized cDNA was 1:5 diluted in nuclease free water before being processed into gene expression analysis with the 96 wells StepOne real time PCR Machine (Applied biosystems) using 2× FastStart Universal SYBR Green Master Mix (Roche). CT values were normalized to the gene indicated in the respective figures. The following primers were used: […]
For RNA isolation of in vitro stimulated T cells, RNeasy mini kit (Qiagen) was used. 200 ng of total RNA was used to prepare the library for RNA sequencing. Coexpression patterns of genes associated with effector and memory cell fate, immune checkpoints, effector molecules, and adhesion/homing were chosen based on the literature as depicted in the main text. Data underwent z-score normalization for display as described previously (Xiong et al., 2020). Upstream regulator analysis was performed using Ingenuity pathway analysis software, using a cut-off log 2fold change of 1 and a p value of […].

APTK-induced tumors = assay: subcutaneous APTK tumors in Pink1-/- mice, UA diet; type: in vivo
Description: UA activates mitophagy in myocytes and hippocampal neurons via a Pink1/Parkin mediated stress-response (D'Amico et al., 2021). […] Moreover, UA stabilized Parkin protein expression (FIG. 4G). To functionally confirm the dependence of UA induced TSCM formation on Pink1/Parkin mediated mitophagy, the inventors activated Pink1^−/− T cells in the presence or absence of UA. Loss of Pink1 prevented the UA-induced lysosome formation as well as the decrease in mitochondrial content (FIG. 4H, I).
Tumors were minced and digested with Tumor & Tissue Dissociation Reagent (BD Horizon) for 30 min. The remaining organ pieces were filtered through a 70 μm cell strainer. Cells were then washed with PBS 1% BSA and 2 mM EDTA. Immune cells were enriched on a 30%/40%/75% Percoll gradient after a 1700 rpm 17 min centrifugation. Then, tumor immune filtrates or activated T cells were stained with Fixable Viability Dye-eF780 (65-0865-14; eBioscience), αCD45-FITC (30-F11; 11-0451-85; eBioscience), αCD11b-BV650 (M1/70; 56340; BD) α-CD11C-BV785 (HL3; 563735; BD), αLy6G-BV605 (53-6.7; 563005; BD), αLy6C-AF700 (HK1.4; 128024; Biolegend), αF4/80-PE (BM8; 12-4801-82, eBioscience), αPD-L1-PECy7 (MIH5; 25-5982-80, eBioscience); or with Fixable Viability Dye-eF780 (ebioscience), αCD45-BV786 (30-F11; 564225; BD), αCD4-BUV496 (GK1.5; 564667; BD), αCD8-BV605 (100744; Biolegend), αPD1-APC (J43; 17-9985-82; eBioscience), αTIM-3-PECy7 (RMT3-23; 119715; Biolegend), αCTLA4-PE (UC10-4B9; 106305; Biolegend) and αLag3-BV421 (C9B7W; 125221, Biolegend); or with Fixable Viability Dye-eF780 (eBioscience), αCD4-FITC (H129.19; 553650; BD), αCD8-APC (53-6.7; 17-0081-83; eBioscience), αCD44-AF400 (IM7; 103026; Biolegend), αCD62L-BV785 (MEL-14; 104440; Biolegend), αSca-1-PerCP-Cy5.5 (D7; 45-5981-82; eBioscience), αCD95-PE (Jo2; 554258; BD); or with Fixable Viability Dye-eF780 (eBioscience), αCD8-BV650 (53-6.7; 563234; BD), αCD4-BUV496 (GK1.5; 564667; BD), αCD127-APC (A7R34; 17-1271-82; eBioscience), αCD95-FITC (SA367H8; 152605; Biolegend), αCD44-AF400 (IM7; 103026; Biolegend), αCD62L-BV785 (MEL-14; 104440; Biolegend), αSca-1-PerCP-Cy5.5 (D7; 45-5981-82; eBioscience) followed by intracellular staining of αTCF1-PE (S33-966; 564217; BD), or PGC-1α (sc-518025; D-5; santa cruz), or αCyclinD1 (MA5-28534, DCS-6; Invitrogen) with transcription factor buffer set kit (BD Biosciences). To study cytokine expression, tumor immune infiltrates were stimulated ex vivo with 20 ng/ml PMA and 1 μg/ml Ionomycin (Sigma) for 3 h in T cell activation medium with Brefeldin A (Biolegend). For T cell in vitro activation experiments over several days, Brefeldin A was added to the medium for the last 3 hours.

[2] = cited from earlier work
APTK-s.c. tumors [3] = assay: subcutaneous APTK tumors, UA-supplemented diet; type: in vivo, C57BL/6 mice

O=c1oc2cc(O)ccc2c2ccc(O)cc12 [UA, Urolithin A]
tumor growth (protective effect of UA) (APTK-s.c. tumors [1]): abrogated the protective effect of UA
transcription of several Wnt target genes (T cells): increased transcription
expression of Cd27, Ccr7 and adhesion genes (T cells; RNA sequencing, 48 h): enhancing expression
expression of effector fate associated genes Prdm1 and Id2 (T cells; RNA sequencing, 48 h): reduced expression
expression of genes that code for immune checkpoints and effector molecules (T cells; RNA sequencing, 48 h): reduced the expression
genes involved in memory formation such as Tcf7, Bach2 and Bcl6 (T cells; RNA sequencing, 48 h): special enrichment
Atg5 gene expression (T cells; qPCR, 24 h, UA 50 μM): significant upregulation
Atg7 gene expression (T cells; qPCR, 24 h, UA 50 μM): significant upregulation
Lamp2 gene expression (T cells; qPCR, 24 h, UA 50 μM): significant upregulation
Pink1 gene expression (T cells; qPCR, 24 h, UA 50 μM): significant upregulation
p62 gene expression (T cells; qPCR, 24 h, UA 50 μM): significant upregulation
tumor growth (tumor suppressive effect of UA) (APTK-induced tumors; Pink1 deletion, UA-containing vs control diet): abrogated the tumor suppressive effect of UA
TCF-1 expression in CD8+ TIL (APTK-induced tumors; UA vs control diet): did not exhibit differences
exhaustion markers in CD8+ TIL (APTK-induced tumors; UA vs control diet): did not exhibit differences
ex vivo cytokine release of CD8+ TIL (APTK-induced tumors; UA vs control diet, PMA/Ionomycin): did not exhibit differences
muscle function ([2]; Rodents fed with a UA-high diet): superior muscle function
muscle function in mice with Duchenne muscular dystrophy ([2]; UA-high diet): recovery of muscle function
tumor growth, UA diet combined with PD-1 blockade (APTK-s.c. tumors [3]; UA-containing food + a-PD-1): sensitized APTK tumors to PD-1 blockade
tumor growth (APTK-s.c. tumors [3]; UA-supplemented diet from day 11 after tumor injection vs control food): significantly reduced

— US20260069693A1, “UROLITHINS AND T-CELL MEDIATED IMMUNE RESPONSE” (priority 2022, published 2026)
